SMILES strings stand for the structures.

This is an account of results in patent US11149006B2, “Compounds as neurokinin-1 receptor antagonists and uses thereof” (XW LABORATORIES INC., priority 2018, dated 2021).

The target in data set [1] is human NK-1 receptor (NK-1/HEK293) (Homo sapiens (Human), UniProt P25103). Put plainly: NK-1 calcium flux FLIPR antagonist assay. Conditions: for inhibition at 10 µM: HEK293, NK-1, max dose 10000 nM; for IC50: NK-1 FLIPR antagonist mode. The data set is classed as cell-based. On the procedure:
(§1) The potential antagonist activity of Compound I and IV on human NK-1/2/3 receptor was evaluated by calcium flux FLIPR assay. The results are shown in the following Table 2, while the NK-1 fitting dose-response curves for Compound I and IV are shown in FIGS. 2A and 2B, respectively.
(§2) 1. NK-1, NK-2 and NK-3 Calcium Flux FLIPR assays:
(§3) Materials: Cell Lines: NK-1/HEK293, NK-2/HEK293, NK-3/HEK293. Media: DMEM, Invitrogen (Cat #11960), FBS, Corning (Cat #35-076-CV), G418, Invitrogen (Cat #10131-027), and Blasticidin, Invitrogen (Cat #A11139). Reagent: Fluo-4 Direct, (Invitrogen, Cat #F10471).
(§4) Experimental procedure for NK-1, NK-2 and NK-3 calcium flux FLIPR assay: Perform the assay in the following steps: 1) Cell preparation: thaw each cell (NK-1, NK-2 and NK-3) in 37° C. water bath with gentle shaking, transfer cell suspensions to 50 mL conical tubes and add plating media to 45 mL mark. Count cells using a ViCell for concentration. Re-suspend the cells in the growth media to a concentration of 10×10^5 per mL. Add 20 μL per well of the cell suspension to the 384-well plates (20,000 cells/well). Place the cells at 37° C. 5% CO2 incubator overnight. 2) Calcium Flux FLIPR assay: a) Prepare Probenecid reagent by adding 1 mL FLIPR Assay Buffer to 77 mg probenecid to make 250 mM solution. b) Prepare assay reagent (2×8 μM Fluo-4 Direct™ Loading Buffer): Thaw one vial of Fluo-4 Direct™ crystals, add 10 mL of FLIPR Assay Buffer to the Vial; add 0.2 mL of Probenecid to each 10 mL vial of Fluo-Direct. c) Compounds preparation: The compounds are serially diluted in 100% DMSO 1:3 for 10 pts by Echo. Then dispense 900 nL of compounds to the 384-compound plate. Remove cell plate from incubator and gently dispense 20 μL of 2×Fluo-4 Direct™ to 384 well cell culture plate. Incubate for 50 min at 37° C. 5% CO2 and 10 min at room temperature. Remove cell plate from incubator and place it into FLIPR (Molecular Devices). Place compound plate and tip box into FLIPR. For the dose response curve (DRC) plate: a) Run the Protocol on FLIPRTETRA. b) Transfer 10 μL of assay buffer from 384-well plate to the cell plates. c) Read fluorescence signal. d) Transfer 10 μL of the compounds from the DRC plate to the cell plates. e) Read fluorescence signal. f) Calculate the “Max-Min” starting from Read 90 to Maximum allowed. […] For the compound plate in antagonist test: a) Run the Protocol on FLIPRTETRA. b) Transfer 10 μL of references and compounds from the compound plate to the cell plates. c) Read fluorescence signal. d) Transfer 10 μL of 6×EC80 concentrations of agonist reference compounds to the cell plates. e) Read fluorescence signal. f) For antagonist test, calculate the “Max-Min” starting from Read 90 to Maximum allowed. h) Analyze the data using GraphPad Prism 5.0.
In general terms: A change in cytosolic calcium serves as a functional read-out for many receptors and channels.

For data set [2], the target named is human NK-2 receptor (NK-2/HEK293) (Homo sapiens (Human), UniProt P21452). Kind of data set: NK-2 calcium flux FLIPR antagonist assay. Conditions: for inhibition at 10 µM: HEK293, NK-2, max dose 10000 nM; for IC50: NK-2 FLIPR antagonist mode. Type of data set: cell-based. On the procedure:
as §1, §2, §3, §4

For data set [3], the target named is human NK-3 receptor (NK-3/HEK293) (Homo sapiens (Human), UniProt P29371). Put plainly: NK-3 calcium flux FLIPR antagonist assay. The data set is classed as cell-based. Conditions: for inhibition at 10 µM: HEK293, NK-3, max dose 10000 nM; for IC50: NK-3 FLIPR antagonist mode. The method, then: as §1, §2, §3, §4
Another data set has as its target human NK-1 receptor (Homo sapiens (Human), UniProt P25103). Put plainly: Tag-Lite Tachykinin NK-1 receptor competitive binding assay (TR-FRET). Conditions: Tag-Lite NK-1 labeled cells, read-out: IC50 on hNK-1 receptor. On the procedure:
Human Tachykinin NK-1 receptor binding assay was performed using CisBio's Tag-Lite® Ligand binding assay. The homogeneous binding assay employees the time resolved fluorescence energy transfer (TR-FRET) technology. The potential inhibitory effect of Compound I and V on human NK-1 receptor was evaluated by TagLite® Tachykinin NK-1 receptor binding assay.
1. Tag-Lite® Tachykinin NK-1 receptor binding assay.
Materials: Tag-Lite® Tachykinin NK-1 labeled Cells, Tachykinin NK-1 Receptor red agonist Fluorescent Ligand (10 μMx50 μL), Tag-Lite Buffer (TLB) (5×concentration) (CisBio, Redford, Mass., U.S.A). [Sar9, Met(O2)11]-Substance P-Polypeptides (Tocris, Bristol, UK).
2. Competitive binding (Ki determination): Competitive binding assay measures the dissociation constant, To perform the assay, the compound is titrated into a solution containing a fixed concentration of fluorescent ligand and a fixed amount of cells.
Experimental procedure for competitive binding (Ki determination): Perform CisBio's Tag-Lite® Tachykinin NK-1 binding assay according to manufacturer's protocol. […] Incubate 2 h at room temperature, read the Signal665nm and Signal620nm using Evision. Data analysis was performed by calculating the Ratio following the formula below, the competitive binding data for each compound was analyzed with GraphPad Prism 5.0, and IC50 value was calculated for each compound.
(In general: In TR-FRET formats the signal depends on donor and acceptor labels being close together.)

Data set [4] can be described thus: Rat pharmacokinetic study. Type of data set: in vivo, male Sprague-Dawley rats. Conditions: male, Sprague-Dawley, plasma. On the procedure:
For rat pharmacokinetic studies, male Sprague-Dawley rats were housed individually and fasted overnight before use. For Compound I and reference compound CP-122721, a single dose was administered to each rat in two groups (n=5/group) via intravenous (i.v.) administration at 4 mg/kg and oral (p.o.) administration of 20 mg/kg, respectively.
The vehicle used for i.v. administration was 10% HP-β-CD. The vehicle used for p.o. administration was 0.5% CMC-Na/0.1% Tween 80 in saline. Blood samples were collected at specified time-points following administration to individual rats within i.v. (pre-dose, 10 min, 0.5 h, 1 h, 2 h, 4 h, 6 h, 8 h, 12 h) and p.o. (pre-dose, 15 min, 0.5 h, 1 h, 2 h, 4 h, 8 h, 12 h, 24 h) group. Blood samples were clotted on ice immediately, plasma samples were then isolated by centrifugation and stored frozen (−80° C.) until further analysis. The concentrations of Compound I and CP-122721 were individually determined by LC/MS/MS assay. Various pharmacokinetic parameters were calculated using Phoenix™ WinNonlin® software. To quantify the bioconversion efficiency of the Compound I and CP-122721 in the circulation system, the bioavailability of Compound I and CP-122721 after p.o. administration was calculated.

In data set [5] the test system is cisplatin-induced emesis in ferrets. Put plainly: Cisplatin-induced acute and delayed emesis in the ferret. Type of data set: in vivo. Conditions: for reduction of retching+vomiting, entire delayed phase: delayed phase 24-72 h. The method, then: To investigate the anti-emetic potential of Compound I by preventing cisplatin-induced acute and delayed emesis in the ferret. Aprepitant was used as a positive control in this study.
40 castrated male ferrets weighing between 1.2 and 2.3 kg were used, which were obtained from Wuxi Sangosho Biotechnology Co. Ltd. (Wuxi, Jiangsu, China) and housed in groups of 2-3 at 24±1° C. with at 50±5% humidity. Artificial lighting was provided between 06:00 to 18:00 h. Water and dry pelleted cat chow were given ad libitum, unless otherwise stated. All experiments were conducted under license from the Government of the Hong Kong SAR and the Animal Experimentation Ethics Committee, The Chinese University of Hong Kong.
Compound I and aprepitant were supplied by XW Laboratories, Inc, China and were dissolved in distilled water. Cisplatin (Lot #MKBR1947V) was from Sigma-Aldrich, St. Louis, USA, and was dissolved in 0.9% w/v saline adjusted to pH 4 with 0.1N HCl. Doses were expressed as the free base, unless otherwise stated.
On the day of the experiment, groups of ferrets were administered Compound I (0.1, 0.3, 1 mg/kg, p.o.), aprepitant (1 mg/kg, p.o.), or distilled water (vehicle control, 1 mL/kg, p.o.) 2 h before cisplatin (5 mg/kg, i.p.) and then the treatments were continued at 24 h intervals (at 24 and 48 h post cisplatin). Emesis was characterized by rhythmic abdominal contractions that were either associated with the forceful oral expulsion of solid or liquid material from the gastrointestinal tract (i.e., vomiting), or not associated with the passage of material (i.e., retching movements). Consecutive episodes of retching and/or vomiting were considered separate when the animal changed its location in the observation cage, or when the interval between episodes exceeded 5 seconds.
GraphPad Prism 8 (GraphPad Software, La Jolla, Calif., United States) was used to perform statistical comparisons. Animal emesis behaviours like retching and vomiting were analyzed using a one-way analysis of variance followed by Tukey's multiple comparisons tests. The results are expressed as the mean±SEM. In all cases, differences between treatment groups were considered significant when the p value was less than 0.05.

[6] abbreviates: 1 mg/kg p.o., day 2 (non-significant).
Setting [7] is: 1 mg/kg p.o., entire 72 h observation period.

human NK-2 receptor (NK-2/HEK293), sequence (P21452 whole entry): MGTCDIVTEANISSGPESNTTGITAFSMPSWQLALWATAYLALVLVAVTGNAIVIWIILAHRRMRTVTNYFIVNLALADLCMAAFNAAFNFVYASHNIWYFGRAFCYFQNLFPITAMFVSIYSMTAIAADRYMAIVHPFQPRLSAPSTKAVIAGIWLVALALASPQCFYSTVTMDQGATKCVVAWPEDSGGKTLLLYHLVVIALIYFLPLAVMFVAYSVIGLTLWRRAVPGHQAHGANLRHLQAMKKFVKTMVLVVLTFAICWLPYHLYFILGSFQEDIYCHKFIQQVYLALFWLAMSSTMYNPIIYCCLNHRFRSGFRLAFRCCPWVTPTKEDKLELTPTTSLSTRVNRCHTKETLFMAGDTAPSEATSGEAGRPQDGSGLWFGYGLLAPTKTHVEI
human NK-3 receptor (NK-3/HEK293), sequence (P29371 whole entry): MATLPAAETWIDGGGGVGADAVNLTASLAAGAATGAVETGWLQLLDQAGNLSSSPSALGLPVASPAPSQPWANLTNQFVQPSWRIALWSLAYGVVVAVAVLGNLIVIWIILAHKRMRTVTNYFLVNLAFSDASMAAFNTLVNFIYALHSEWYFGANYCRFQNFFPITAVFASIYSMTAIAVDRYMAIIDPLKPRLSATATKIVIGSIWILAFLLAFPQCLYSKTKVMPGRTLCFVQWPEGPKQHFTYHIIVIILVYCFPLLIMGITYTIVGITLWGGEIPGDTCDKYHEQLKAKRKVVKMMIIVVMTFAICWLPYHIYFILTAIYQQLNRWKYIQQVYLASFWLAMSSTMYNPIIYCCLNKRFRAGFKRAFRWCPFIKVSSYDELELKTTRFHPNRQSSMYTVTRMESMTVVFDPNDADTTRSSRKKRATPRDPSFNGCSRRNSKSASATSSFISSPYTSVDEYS
human NK-1 receptor (NK-1/HEK293), sequence (P25103 whole entry): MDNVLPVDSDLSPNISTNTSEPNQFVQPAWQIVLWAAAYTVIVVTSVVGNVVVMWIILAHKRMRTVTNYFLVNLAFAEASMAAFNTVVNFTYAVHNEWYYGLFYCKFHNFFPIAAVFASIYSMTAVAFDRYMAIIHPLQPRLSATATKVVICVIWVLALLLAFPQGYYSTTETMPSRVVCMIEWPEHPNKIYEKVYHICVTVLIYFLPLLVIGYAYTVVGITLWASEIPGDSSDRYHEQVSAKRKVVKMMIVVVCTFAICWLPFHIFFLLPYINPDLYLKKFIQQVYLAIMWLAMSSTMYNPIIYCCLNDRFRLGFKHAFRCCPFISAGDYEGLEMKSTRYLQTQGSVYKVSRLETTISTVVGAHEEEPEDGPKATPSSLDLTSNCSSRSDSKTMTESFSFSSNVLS
human NK-1 receptor, sequence (P25103 whole entry): as above

By inhibition is commonly meant the relative decrease from the control value, in per cent. By IC50 is commonly meant the concentration that gives 50% inhibition. On to `[2H]C([2H])([2H])Oc1ccc(S(F)(F)(F)(F)F)cc1CN[C@H]1CCCN[C@H]1c1ccccc1` [Compound IV, (2S,3S)—N-(2-(methoxy-d3)-5-(pentafluorosulfanyl)benzyl)-2-phenylpiperidin-3-amine], for which the inhibition at 10 µM is 101% in data set [1], 1% in data set [2] and 29% in data set [3]. Further, the IC50 in data set [1] is 0.0222 µM; in data set [2], greater than 10 µM; in data set [3], greater than 10 µM.

As usually defined, the AUC(0-t) is the area under the concentration-time curve up to a stated or last time point. In general, half-life refers to how long it takes for the measured level to halve. A low value points to fast loss. Broadly, the bioavailability is dose-corrected exposure relative to a reference, in per cent. Higher therefore signals much systemic uptake. Usually Cmax stands for the maximum level reached in the sampled fluid or tissue. The term Tmax denotes the time from dosing to the highest level. On to `COc1ccc(S(F)(F)(F)(F)F)cc1CN[C@H]1CCCN[C@H]1c1ccccc1` [Compound I, (2S,3S)—N-(2-methoxy-5-(pentafluorosulfanyl)benzyl)-2-phenylpiperidin-3-amine], for which the IC50 on human NK-1 receptor was 0.00064 µM; in data set [1], 0.00615 µM; in data set [2], greater than 10 µM; in data set [3], greater than 10 µM. Moreover, the inhibition at 10 µM turned out to be 102% in data set [1], 15% in data set [2] and 26% in data set [3]. Further, the AUC(0-t) was 663 ng·h/mL in data set [4] (iv, 4 mg/kg) and 740 ng·h/mL in data set [4] (po, 20 mg/kg). Also, the half-life in data set [4] (iv, 4 mg/kg) was 1.84 h; in data set [4] (po, 20 mg/kg) it was 1.9 h. This compound also yielded a bioavailability in data set [4] (oral, p.o. 20 mg/kg vs i.v. 4 mg/kg) of 22.4%. This compound also returned a Cmax in data set [4] (po, 20 mg/kg) of 202 ng/mL. In addition, in data set [4] (po, 20 mg/kg), the Tmax stood at 1.4 h. In addition, the “reduction of retches+vomits, overall combined acute and delayed response” value is reported as 23.9% in data set [5] (0.1 mg/kg p.o., 0-72 h) and 52.2% in data set [5] (1 mg/kg p.o., 0-72 h). The same compound had a reduction of retches in data set [5] (0.1 mg/kg p.o., entire 72 h observation period) of 21.9%. The “reduction of retching+vomiting response” value was found to be 64.5% in data set [5] (1 mg/kg p.o., day 1 (acute)); 22.7% in data set [5] (setting [6]); 67.5% in data set [5] (1 mg/kg p.o., day 3). For the same compound, the “reduction of retching+vomiting, entire delayed phase” value in data set [5] (1 mg/kg p.o.) was 41.3%. Moreover, the “reduction of total number of episodes” value in data set [5] (setting [7]) is 59.0%. In data set [5] (setting [7]), the “reduction of total number of retches” value turned out to be 51.3%. Further, the “reduction of total number of vomits” value in data set [5] (setting [7]) is 57.3%.

Regarding `C[C@@H](O[C@H]1OCCN(Cc2n[nH]c(=O)[nH]2)[C@H]1c1ccc(F)cc1)c1cc(C(F)(F)F)cc(C(F)(F)F)c1` [aprepitant, reference compound], the “reduction of retches+vomits, overall combined acute and delayed response” value in data set [5] (1 mg/kg p.o., 0-72 h) was 67.4%. Moreover, the “reduction of retching+vomiting response” value stood at 76.5% in data set [5] (1 mg/kg p.o., day 1 (acute)); 46.7% in data set [5] (setting [6]); 73.3% in data set [5] (1 mg/kg p.o., day 3). The “reduction of retching+vomiting, entire delayed phase” value in data set [5] (1 mg/kg p.o.) amounted to 59.4%. Further, in data set [5] (setting [7]), the “reduction of total number of episodes” value turned out to be 64.0%. The “reduction of total number of retches” value in data set [5] (setting [7]) was found to be 67.9%. Also, the “reduction of total number of vomits” value in data set [5] (setting [7]) worked out at 64.6%. Moreover, the “superiority in reduction of retches+vomits over Compound I 0.1 mg/kg” value in data set [5] (aprepitant 1 mg/kg p.o. vs Compound I 0.1 mg/kg, 0-72 h) is 43.5%. Further, the “superiority in reduction of retches over Compound I 0.1 mg/kg” value in data set [5] (aprepitant 1 mg/kg p.o. vs Compound I 0.1 mg/kg, 72 h) is 46%.
